Source: patent US20060110456A1, “Method for biocidal and/or biostatic treatment and compositions therefor” (NATIONAL UNIVERSITY OF SINGAPORE, priority 2004, published 2006)
Entries after “also recorded” stand apart in the source; their conditions may differ. Counter-ions that a name gives are not always drawn.

Key:
Bugula neritina larvae = assay: Bioassay against bryozoan larvae; format: in vivo; conditions: crude rank, best (1) to worst (8)
Method: Bugula neritina (Phylum Bryozoa, Class Gymnolaemata, Order Cheilostomatida) is a cosmopolitan species of bryozoan, commonly found in most marine fouling communities. The larvae are brooded in ovicells found on the stem of the colonies. When released, the larva will settle quickly on most surfaces, within a few minutes. At 24° C., the settled larvae forms the one-cell ancestrula, and after 48 hours, the lophophore has developed and extended for feeding.
Adult colonies of Bugula neritina were collected from fouling communities growing on the submerged pontoons on a floating fish farm located off Changi, Singapore. Adult animals were maintained in the open-circulation aquarium at St John's island marine laboratory, Singapore. The adults were kept in total darkness for 24 hours. On exposure to light, larvae were released after half an hour. […] Because the larvae will settle quickly, larvae were pipetted directly into test wells in 1 ml of seawater using a graduated glass pipette.
4 replicates were done for each treatment. After 24 hours, larvae were scored as settled, swimming or dead/deformed. The assay plates were usually kept for another 24 hours and checked again, to ascertain that the settled larvae had developed into viable colonies with lophophores. Two trials were repeated for each compound.
Bioassays were carried out using the method described above, in July 2003 during the peak spawning season for Bugula.

[1] = system: biofilm bacteria (strains 4, 9, 14, 20, 27, 28); assay: Effect of pharmaceuticals on adhesion of bacteria to plastic / biofilm formation on NTC and TC plates; format: cell-based, marine bacteria isolated from Singapore fouling communities; conditions: for Effect on formation of bacterial biofilms on NTC and TC plates: 25 ug ml−1, NTC = untreated polystyrene, TC = tissue-culture treated, strains 4, 9, 14, 20, 27, 28; for Prevention of formation of biofilm: crude rank, best (1) to worst (8)
Method: Commercial forms of pharmaceuticals were used as previously described. […] These samples were sonicated for at least 1 min and these fine suspensions were used as initial stock solutions.
For studies of bacterial adhesion, the pharmaceuticals were first sterilized by soaking in absolute alcohol (Merck) for half an hour. Ethanol was removed by air-drying with air passed through 0.25 μm pore size syringe filter (Sartorius, Germany). Stock solutions were concentrations of 100 μg ml−1 in SDI.
The effect of pharmaceuticals on bacterial adhesion was analyzed using a modified microplate method adapted from Shea and Williamson (1990). This method employs a combination of staining attached bacteria with crystal violet, releasing the stain with sodium desoxycholate, and measuring the resulting absorbance of the crystal violet.
Detailed results for six selected strains are presented here: strains 4, 9, 14, 20, 27, 28. The bacterial strains were grown in Marine Broth (Pronadisa, Spain) overnight, in the dark, at 28° C. on a rotary shaker (150 rpm) in 5 ml centrifuge tubes (Falcon). Cells were harvested by centrifugation (1500×g, 10 min) and resuspended in sterile seawater (SSW). SSW was prepared by filtering seawater through a 0.2 μm pore size filter (Sartorius) followed by autoclaving. The cells were centrifuged and resuspended once more in SSW. The concentration of resuspended cells was adjusted to A600=1.0 using a spectrophotometer (Beckman DU530, USA).
Flat bottom 96 well polystyrene (hydrophobic, Falcon 351172) (=NTC) and tissue-culture treated polystyrene (hydrophilic, Falcon 353072) (=TC) microplates were used in the analyses. Each test was performed in triplicate. Two sets of experiments were conducted. […] For the control and blank wells, 25 ul of SDI were added. For wells containing pharmaceuticals, 25 ul of the respective pharmaceutical at a concentration of 100 ug ml−1 were added. This was immediately followed by the addition of 75 ul of bacterial suspension. To blanks were added 75 ul of SSW.
The bacterial cells in suspension were allowed to attach for 2 h at 28° C. Unattached cells were removed by aspiration using a plate washer (Tecan, Austria) and wells were rinsed three times with 200 ul of SSW each time. The attached cells were stained with 200 ul of crystal violet solution (0.1% w/v in deionized water) in each well for 5 min. After removing the stain using the plate washer, the wells were rinsed twice with 300 ul of SDI each time. Sodium desoxycholate (200 ul) solution (2% w/v in deionized water) was added to each well to extract the crystal violet from the attached stained cells for 10 min. The absorbance of the crystal violet was read at 590 nm using a microplate reader (Sunrise, Tecan, Austria).
Results of the adhesion assay were obtained by the difference in absorbance readings between wells containing bacterial cells and the mean of absorbance of those containing the SSW only. The effect of the pharmaceuticals on bacterial adhesion was determined by the examining the differences in absorbance between the wells containing the pharmaceuticals+bacteria and the bacteria. The significance was compared using T-test.

[2] = system: hard fouling (barnacles, serpulids, spirorbids); assay: Field testing of coated rods; format: in vivo; parameters: Total hard fouling, difference in mean cover (%), drug vs control / Barnacles, difference in mean cover (%), drug vs control: tested at 25 µg/ml of coating; Serpulids, difference in mean cover (%), drug vs control: tested at 25 µg/ml of coating mix; conditions: for Total hard fouling, mean cover: 25 ug active ingredient per ml of VC50 coating; for Overall performance in field assay: crude rank, best (1) to worst (8); for Barnacles, difference in mean cover (%), drug vs VC50 / Serpulids, difference in mean cover (%), drug vs VC50 / Spirorbids, difference in mean cover (%), drug vs VC50 / Total hard fouling, difference in mean cover (%), drug vs VC50: drug + VC50 rods vs VC50 control; for Barnacles, difference in mean cover (%), drug vs control / Serpulids, difference in mean cover (%), drug vs control / Spirorbids, difference in mean cover (%), drug vs control / Total hard fouling, difference in mean cover (%), drug vs control: drug + VC50 rods vs uncoated blank control; for Barnacles Mean cover (%) / Serpulids Mean cover (%) / Spirorbids Mean cover (%) / Total hard fouling Mean cover (%): rods coated with drug + VC50, field test; for Total hard fouling Mean cover (%): percentage cover within 6 mm×50 mm transect
Method: Fouling on rods occurs more rapidly than on flat panels, enabling rapid assessment of the performance of coatings.
6 mm diameter glass rods were cut to 150 mm length and prepared prior to coating by baking in a furnace at 150° C. for 24 hours and then cooling in a dessicator.
All pharmaceuticals were obtained in commercially available form. All tablets were reduced to fine powder with a mortar and pestle, and capsules were opened to extract the contents. The amount of drug powder required to attain the desired concentrations for all tests was calculated from product dosage information and then measured by weight on a high-resolution electronic balance. This was added to the coating and mixed thoroughly prior to application to obtain the concentration of 25 ug active ingredient per ml of coating mix.
The commercial antifouling product used to benchmark field experiments was VC Offshore with Teflon® manufactured by International Coatings.
For our experiments, a reduced copper coating (“VC50”) was prepared by mixing approximately 20 g of #YBA779 into 100 ml of #YBA707. The prepared coating was then allowed to stand so that bubbles from the mixing process dissipated. 15 ml centrifuge tubes were filled with 10 mls of prepared coating. Prepared glass rods were then immersed in the coating to a height of 100 mm and then suspended on a frame to air dry until coating cured.
Five replicate rods were tested for every experimental treatment, including controls. Two sets of controls were used, an uncoated blank control and a VC50 control without pharmaceutical additives. Rod were randomly arrayed on plastic vexar mesh attached to PVC frames and suspended at a depth of 10 cm from the water surface. […] Rods were examined visually weekly for the duration of testing, which typically lasts between 6 to 10 weeks. All fouling was scored as percentage cover of each category within a 6 mm×50 mm transect on each rod.

[3] = drug at 25 ug per ml of VC50 coating

| SMILES | Prevention of settlement of Bugula larvae (Bugula neritina larvae) | Prevention of formation of biofilm [1] | Total hard fouling, mean cover ([2]; coated rods) [%] | Performance against spirorbid polychaetes ([2]; coated rods, in words) | Overall performance in field assay [2] | Barnacles, difference in mean cover (%), drug vs VC50 [2] [%] | Serpulids, difference in mean cover (%), drug vs VC50 [2] [%] | Spirorbids, difference in mean cover (%), drug vs VC50 [2] [%] | Total hard fouling, difference in mean cover (%), drug vs VC50 [2] [%] | Barnacles, difference in mean cover (%), drug vs control [2] [%] | Serpulids, difference in mean cover (%), drug vs control [2] [%] | Spirorbids, difference in mean cover (%), drug vs control [2] | Total hard fouling, difference in mean cover (%), drug vs control [2] [%] | Barnacles Mean cover (%) [2] [%] | Serpulids Mean cover (%) [2] [%] | Spirorbids Mean cover (%) [2] [%] | Total hard fouling Mean cover (%) [2] [%] | further results |
| --- | --- | --- | --- | --- | --- | --- | --- | --- | --- | --- | --- | --- | --- | --- | --- | --- | --- | --- |
| CCCCCCCCCC(=O)OC1(c2ccc(Cl)cc2)CCN(CCCC(=O)c2ccc(F)cc2)CC1 [HDL, haloperidol decanoate] | 4 | 6 | 30 | exclude spirorbid settlement; also recorded: significantly improve the performance of VC50 against spirorbid polychaetes | 4 | −6.7 | −1.67 | −16.66 | −25 | −69.7 | −3.33 | +5% | −68 | 23.3 | 0 | 6.67 | 30 | Effect on formation of bacterial biofilms on NTC and TC plates [1]: no significant difference from control; also recorded: On TC, there was a slight reduction in biofilm formation for strain 28 (p<0.1); also recorded: No significant reduction in biofilm formation was observed for most strains, except for strain 28, where there appears to be a slight effect (0.05<p<0.1); Performance against barnacles ([2]; coated rods, in words): did not significantly reduce barnacle cover compared to VC50 controls; Performance against serpulid polychaetes ([2]; coated rods, in words): completely excluded; Effect of addition of drug on antifouling performance of VC50 coating (total hard fouling) ([2]; drug at 25 ug per ml of VC50 coating, in words): significantly less on VC50+HDL treated rods; also recorded: significantly improved the performance of VC50 coating |
| Cc1nccn1CC1CCc2c(c3ccccc3n2C)C1=O (stereo not drawn) [ZFN, ondansetron hydrochloride] | 8 | 2 | 10 | exclude spirorbid settlement | 2 | −26.33 | 0 | −18.66 | −45 | -89.3 | −1.66 | +3% | −88 | 3.67 | 1.67 | 4.67 | 10 | Effect on formation of bacterial biofilms on NTC and TC plates ([1]; hydrochloride): reduced bacterial adhesion of the 6 strains to the NTC plates; also recorded: only slight activity (p<0.1) against strain 4 on the TC plates; also recorded: marked reduction of biofilm growth for most on NTC but not on TC; Less spirorbid cover than VC50 [2, 3]: 18.7%; Reduction in barnacle cover compared to VC50 [2, 3]: 26.3%; Effect of addition of drug on antifouling performance of VC50 coating (total hard fouling) ([2]; drug at 25 ug per ml of VC50 coating, in words, hydrochloride): increased the antifouling properties of VC50 coating significantly; also recorded: significantly improved the performance of VC50 coating |
